Measurements from ChEMBL document CHEMBL3779853, “Target β-catenin/CD44/Nanog axis in colon cancer cells by certain N'-(2-oxoindolin-3-ylidene)-2-(benzyloxy)benzohydrazides” (Bioorg Med Chem Lett, 2016).
Calls of active or inactive are those of the source. The calls are words filed in the database; no cut-off is given here.

Tests used:
HT-29 = experiment: Cytotoxicity against low CD44 expressing human HT-29 cells after 48 hrs by WST-1 assay; format: functional, cell-based
LoVo [1] = experiment: Cytotoxicity against high CD44 expressing human LoVo cells after 48 hrs by WST-1 assay; format: functional, cell-based
[2] = Inhibition of Wnt/beta catenin pathway (unknown origin) in human LoVo cells transfected with TCF/LEF reporter plasmid assessed as GFP expression at 2.5 uM after 48 hrs by flow cytometric analysis (reference value: 3.7%); format: cell-based; parameters: scale not given: the % may be the effect or the level left
[3] = Inhibition of Wnt/beta catenin pathway (unknown origin) in human LoVo cells transfected with TCF/LEF reporter plasmid assessed as GFP expression at 5 uM after 48 hrs by flow cytometric analysis (reference value: 3.7%); format: cell-based; parameters: scale not given: the % may be the effect or the level left
[4] = Inhibition of Wnt/beta catenin pathway (unknown origin) in human LoVo cells transfected with TCF/LEF reporter plasmid assessed as GFP expression at 10 uM after 48 hrs by flow cytometric analysis (reference value: 3.7%); format: cell-based; parameters: scale not given: the % may be the effect or the level left
[5] = Inhibition of Wnt/beta catenin pathway assessed as downregulation of CD44-mediated Nanog expression in human LoVo cells at 2.5 to 10 uM after 48 hrs by RT-PCR analysis; format: cell-based
LoVo [6] = experiment: Downregulation of Sox2 expression in human LoVo cells at 10 uM after 48 hrs by RT-PCR analysis; format: functional, cell-based
LoVo [7] = experiment: Downregulation of Oct-4 expression in human LoVo cells at 10 uM after 48 hrs by RT-PCR analysis; format: functional, cell-based
[8] = Cell cycle arrest in high CD44 expressing human […] cells assessed as accumulation at S phase at 5 to 10 uM; format: functional, cell-based
[9] = Cell cycle arrest in high CD44 expressing human […] cells assessed as accumulation at G2 phase at 5 to 10 uM; format: functional, cell-based
[10] = Cell cycle arrest in high CD44 expressing human […] cells assessed as accumulation at M phase at 5 to 10 uM; format: functional, cell-based
[11] = Cell cycle arrest in low CD44 expressing human […] cells assessed as accumulation at S phase at 5 to 10 uM; format: functional, cell-based
[12] = Cell cycle arrest in low CD44 expressing human […] cells assessed as accumulation at G2 phase at 5 to 10 uM; format: functional, cell-based
[13] = Cell cycle arrest in low CD44 expressing human […] cells assessed as accumulation at M phase at 5 to 10 uM; format: functional, cell-based
TCF4-CTNNB1 complex = target: T1, TCF4-CTNNB1 complex (Homo sapiens, UniProt P35222+Q9NQB0); experiment: Inhibition of human GST tagged Tcf4/beta catenin interaction after 2 hrs using fluorescent AP Attophos substrate by ELISA analysis; format: protein-complex assay
T1 sequence (P35222 whole entry): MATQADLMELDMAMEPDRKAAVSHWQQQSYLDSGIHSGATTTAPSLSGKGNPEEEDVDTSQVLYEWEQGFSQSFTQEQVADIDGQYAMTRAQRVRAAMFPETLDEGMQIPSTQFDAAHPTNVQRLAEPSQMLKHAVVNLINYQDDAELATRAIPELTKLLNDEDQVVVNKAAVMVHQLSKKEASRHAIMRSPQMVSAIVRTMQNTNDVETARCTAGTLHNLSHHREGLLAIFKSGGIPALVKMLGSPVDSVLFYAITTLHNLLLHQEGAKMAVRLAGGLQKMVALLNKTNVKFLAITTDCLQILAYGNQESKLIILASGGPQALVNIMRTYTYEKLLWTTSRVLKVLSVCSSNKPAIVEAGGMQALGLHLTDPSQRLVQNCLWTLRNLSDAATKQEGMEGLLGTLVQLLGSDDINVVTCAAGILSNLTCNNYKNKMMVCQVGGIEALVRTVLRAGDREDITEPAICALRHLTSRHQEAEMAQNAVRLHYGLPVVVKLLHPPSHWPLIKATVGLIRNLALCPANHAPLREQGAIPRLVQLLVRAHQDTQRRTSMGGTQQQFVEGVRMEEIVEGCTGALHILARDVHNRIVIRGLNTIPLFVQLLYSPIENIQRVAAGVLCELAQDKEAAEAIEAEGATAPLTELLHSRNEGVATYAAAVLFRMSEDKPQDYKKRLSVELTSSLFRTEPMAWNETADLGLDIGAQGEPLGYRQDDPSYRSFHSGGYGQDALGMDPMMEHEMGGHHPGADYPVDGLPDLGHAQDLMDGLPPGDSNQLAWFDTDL
T1 sequence (P15884 whole entry): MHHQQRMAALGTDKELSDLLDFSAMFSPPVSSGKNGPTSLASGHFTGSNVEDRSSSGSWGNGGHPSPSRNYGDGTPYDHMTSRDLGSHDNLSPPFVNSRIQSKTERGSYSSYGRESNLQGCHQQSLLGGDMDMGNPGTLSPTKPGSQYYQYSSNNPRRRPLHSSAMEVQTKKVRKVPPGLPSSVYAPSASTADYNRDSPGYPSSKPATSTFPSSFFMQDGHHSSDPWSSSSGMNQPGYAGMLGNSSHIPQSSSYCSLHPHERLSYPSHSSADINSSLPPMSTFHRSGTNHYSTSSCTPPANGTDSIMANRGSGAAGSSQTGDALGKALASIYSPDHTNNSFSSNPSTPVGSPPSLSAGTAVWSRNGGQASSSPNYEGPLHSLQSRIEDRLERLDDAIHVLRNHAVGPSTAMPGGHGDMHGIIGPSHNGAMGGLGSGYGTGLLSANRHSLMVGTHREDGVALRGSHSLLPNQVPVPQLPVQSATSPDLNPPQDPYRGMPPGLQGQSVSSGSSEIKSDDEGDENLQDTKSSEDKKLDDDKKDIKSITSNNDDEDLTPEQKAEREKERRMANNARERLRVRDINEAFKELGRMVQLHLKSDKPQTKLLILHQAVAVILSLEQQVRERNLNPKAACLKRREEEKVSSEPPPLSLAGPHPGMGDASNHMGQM

[14] = Homo sapiens, HT-29, 48 h, read-out: IC50

Row | Compound | IC50 (HT-29; ht-29) | IC50 (LoVo [1]) [µM] | IC50 (TCF4-CTNNB1 complex) [µM] | IC50 (HT-29; [14]) [µM] | also measured
1 | O=C(N/N=C1\C(=O)N(CN2CCOCC2)c2ccccc21)c1ccccc1OCc1ccccc1 | Not Active | 16.3 | – | – | –
2 | CN(Cc1ccccc1)CN1C(=O)/C(=N\NC(=O)c2ccccc2OCc2ccccc2)c2ccccc21 | Not Active | 24.9 | – | – | Activity [2]: 2.2%; Activity [3]: 2%; Activity [4]: 1.7%; Activity [5]: Dose-dependent effect; Activity (LoVo [6]): inactive; Activity (LoVo [7]): inactive; Activity [8]: Active; Activity [9]: Active; Activity [10]: Active; Activity [11]: inactive; Activity [12]: inactive; Activity [13]: inactive
3 | COc1c(CC(C)OC(=O)c2c(C)cc(O)cc2O)c2c3c(CC(C)OC(=O)c4c(C)cc(O)cc4O)c(OC)c(=O)c4c(O)cc(OC)c(c5c(OC)cc(O)c(c1=O)c52)c43 (centres undefined) | – | – | 4.1 | – | –
4 | CCCCN(CCCC)CN1C(=O)/C(=N\NC(=O)c2ccccc2OCc2ccccc2)c2ccccc21 | – | 27.2 | – | 203 | –
5 | CN(Cc1ccccc1)CN1C(=O)/C(=N\NC(=O)c2ccccc2OCc2ccc(Cl)cc2)c2ccccc21 | Not Active | 17.2 | – | – | –
6 | CCN(CC)CN1C(=O)/C(=N\NC(=O)c2ccccc2OCc2ccccc2)c2ccccc21 | – | 14.8 | – | 84.8 | –
7 | COc1c(CC(C)OC(=O)Oc2ccc(O)cc2)c2c3c(CC(C)OC(=O)c4ccccc4)c(OC)c(=O)c4c(O)cc(OC)c(c5c(OC)cc(O)c(c1=O)c52)c43 (centres undefined) | – | – | 3.2 | – | –
8 | CN(C)CN1C(=O)/C(=N\NC(=O)c2ccccc2OCc2ccccc2)c2ccccc21 | – | 12.9 | – | 48.8 | –
9 | CCCN(CCC)CN1C(=O)/C(=N\NC(=O)c2ccccc2OCc2ccccc2)c2ccccc21 | – | 19.8 | – | 95.5 | –
10 | COC(=O)c1c(C)cc2c(c1O)[C@@]1(O)C(=O)c3cc4c(c(O)c3C(=O)[C@]1(OC)[C@H](O)C2)C(=O)C=C(NC1O[C@H](C)[C@@H](OC)[C@H](O)[C@@H]1OC)C4=O (some centres undefined) | – | – | 0.64 | – | –
11 | CN(CCO)CN1C(=O)/C(=N\NC(=O)c2ccccc2OCc2ccccc2)c2ccccc21 | Not Active | 22.4 | – | – | –
12 | CCCC(=O)c1cc2c(c(O)c1C)C(=O)C(=O)c1c(O)cccc1-2 | – | – | 2.4 | – | –
13 | O=C(N/N=C1\C(=O)N(CN2CCCCC2)c2ccccc21)c1ccccc1OCc1ccccc1 | Not Active | 22.4 | – | – | –
